Laboratory results as given in patent US7829568B2, “Substituted 5,6,7,8-tetrahydroimidazo[1,2-a]pyridin-2-ylamine compounds and their use for producing drugs” (Gruenenthal GmbH, priority 2005, dated 2010).

These compounds were tested against T1, human μ-opioid receptor (Homo sapiens, UniProt P35372) (assay: Affinity to the human μ-opioid receptor ([3H]-naloxone displacement, SPA)). Details: compound 1 μmol/l; 1 nmol/l [3H]-naloxone; CHO-K1 membrane preparation.
T1 construct: purchased NEN, Zaventem, Belgium RB-HOM; host or cells: CHO-K1 cells (membrane preparation)
T1 sequence (P35372 whole entry): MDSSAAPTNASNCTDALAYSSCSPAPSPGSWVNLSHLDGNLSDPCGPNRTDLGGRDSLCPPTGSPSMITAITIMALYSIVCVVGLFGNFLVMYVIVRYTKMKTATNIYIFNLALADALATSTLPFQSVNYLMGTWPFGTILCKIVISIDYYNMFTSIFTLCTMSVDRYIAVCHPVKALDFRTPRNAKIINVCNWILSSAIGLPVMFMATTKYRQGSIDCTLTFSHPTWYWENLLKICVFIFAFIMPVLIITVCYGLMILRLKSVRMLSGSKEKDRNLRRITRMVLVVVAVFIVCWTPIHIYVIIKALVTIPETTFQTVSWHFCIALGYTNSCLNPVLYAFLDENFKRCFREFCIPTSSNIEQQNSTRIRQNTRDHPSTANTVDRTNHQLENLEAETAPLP
Type: binding
Experimental: III. Method for Determining the Affinity to the Human μ-Opioid Receptor
The receptor affinity to the human μ-opioid receptor is determined in a homogeneous batch in microtitre plates. In this case, dilution series of the respective substituted 5,6,7,8-tetrahydro-imidazo[1,2-a]pyridin-2-ylamine compound of the general formula I to be tested are incubated with a receptor membrane preparation (15-40 μg of protein per 250 μl of the incubation batch) of CHO-K1 cells which express the human μ-opioid receptor (μ-opiate receptor) (RB-HOM receptor membrane preparation from NEN, Zaventem, Belgium) in the presence of 1 nmol/l of the radioactive ligands [^3H]-naloxone (NET719, NEN, Zaventem, Belgium) and also 1 mg of WGA SPA beads (wheat germ agglutinin SPA beads from Amersham Pharmacia, Freiburg, Germany) in a total volume of 250 μl at room temperature for 90 minutes. 50 mmol/l tris-HCl are used as an incubation buffer with 0.05% by weight of sodium azide and 0.06% by weight of bovine serum albumin. 25 μmol/l naloxone are also added to determine the non-specific bond. At the end of the 90 minute incubation period, the microtitre plates are centrifuged off for 20 minutes at 1000 g and the radioactivity is measured with a β-counter (Microbeta-Trilux, PerkinElmer Wallac, Freiburg, Germany. The percentage of displacement of the radioactive ligand from its bond to the human μ-opiate receptor at a concentration of 1 μmol/l of the compound to be tested is determined and indicated as a % inhibition of the specific bond.
In the case of CCCCN(C(=O)c1cccc(Cl)c1)c1nc2n(c1C(=O)NCCSCc1c(Cl)cccc1Cl)CCCC2 [Example 95, 2-[butyl-(3-chloro-benzoyl)-amino]-5,6,7,8-tetrahydro-imidazo[1,2-a]pyridine-3-carboxylic acid [2-(2,6-dichlor-benzylsulphanyl)-ethyl]-amide], the “μ-opioid receptor (man) (% inhibition)” value was 53%.

Same assay, conditions: compound 1 μmol/l; 1 nmol/l [3H]-naloxone; CHO-K1 membrane preparation; read-out: μ-opioid receptor (man) (% inhibition)
With CCCCN(C(=O)c1ccc(F)c(F)c1)c1nc2n(c1C(=O)NCCC(c1ccccc1)c1ccccc1)CCCC2 [Example 180, 2-[butyl-(3,4-difluoro-benzoyl)-amino]-5,6,7,8-tetrahydro-imidazo[1,2-a]pyridine-3-carboxylic acid (3,3-diphenyl-propyl)-amide] the inhibition at 1 µM was 47%.
CC(CCc1ccccc1)NC(=O)c1c(N(C)C(=O)c2cccc3ccccc23)nc2n1CCCC2 (centres unmarked) [Example 112, 2-[methyl-(naphthalene-1-carbonyl)-amino]-5,6,7,8-tetrahydro-imidazo[1,2-a]pyridine-3-carboxylic acid (1-methyl-3-phenyl-propyl)-amide] gave an inhibition at 1 µM of 51%.
CN(C(=O)c1cccc(Cl)c1)c1nc2n(c1C(=O)N1CCN(CCc3ccccc3)CC1)CCCC2 [Example 106, 3-chloro-N-methyl-N-[3-(4-phenethyl-piperazine-1-carbonyl)-5,6,7,8-tetrahydro-imidazo[1,2-a]pyridin-2-yl]-benzamide] gave an inhibition at 1 µM of 30%.
With Cc1cc(Cl)cc(Cl)c1CNC(=O)c1c(N(C)C(=O)c2ccccc2)nc2n1CCCC2 [Example 188, 2-(benzoyl-methyl-amino)-5,6,7,8-tetrahydro-imidazo[1,2-a]pyridine-3-carboxylic acid 2,4-dichloro-6-methyl-benzylamide] the inhibition at 1 µM was 59%.
With CCCCN(C(=O)c1cccc(Cl)c1)c1nc2n(c1C(=O)Nc1ccc3c(c1)OCCO3)CCCC2 [Example 181, 2-[butyl-(3-chloro-benzoyl)-amino]-5,6,7,8-tetrahydro-imidazo[1,2-a]pyridine-3-carboxylic acid (2,3-dihydro-benzo[1,4]dioxin-6-yl)-amide] the inhibition at 1 µM was 58%.
CN(C(=O)c1cccc2ccccc12)c1nc2n(c1C(=O)NCc1cc(C(F)(F)F)cc(C(F)(F)F)c1)CCCC2 [Example 15, 2-[Methyl-(naphthalene-1-carbonyl)-amino]-5,6,7,8-tetrahydro-imidazo[1,2-a]pyridine-3-carboxylic acid 3,5-bis-trifluoromethyl-benzylamide] gave an inhibition at 1 µM of 35%.
CN(C(=O)Cc1ccccc1)c1nc2n(c1C(=O)N1CCN(c3ccccc3)CC1)CCCC2 [Example 186, N-methyl-2-phenyl-N-[3-(4-phenyl-piperazine-1-carbonyl)-5,6,7,8-tetrahydro-imidazo[1,2-a]pyridin-2-yl]-acetamide] showed an inhibition at 1 µM of 48%.
